Laboratory results published in patent US11993640B2, “Treating inflammatory lung disease” (United States Government as represented by the Department …, priority 2019, dated 2024).
Non-standard residues stand in square brackets, D forms with d. Residues, ends and D or L forms follow the SMILES beside them. *: point of attachment. Phenylacetyl(2,3,4,5,6-F5) = O=C(Cc1c(F)c(F)c(F)c(F)c1F)*; Phe(F5) = N[C@@H](Cc1c(F)c(F)c(F)c(F)c1F)C(=O)O; hArg = N=C(N)NCCCC[C@H](N)C(=O)O; 12Ado = NCCCCCCCCCCCC(=O)O; Nle = CCCC[C@H](N)C(=O)O; Orn = NCCC[C@H](N)C(=O)O; Abu = CC[C@H](N)C(=O)O; PhAc = O=C(Cc1ccccc1)*

Experiments:
OVCAR-3 xenograft = test: Xenograft tumor growth in nude mice, ovarian cancer OVCAR-3; type: in vivo; settings: Panel M, 9 weeks, 5 μg/day s.c.
Method: The peptides' activity was compared with GHRH antagonist MIA-602. All statistical analyzses were performed from comparing GHRA antagonists to non-treated tumor (control).
Peptides and chemicals. GHRH antagonists MIA-602 and AVR-GHRH antagonists (see Table 2 above) were synthesized by solid phase methods and purified by HPLC. The peptides were dissolved in DMSO and further diluted in 10% 1, 2-propanediol. The final concentration of peptides was 50 µg/ml in 10% 1, 2-propanediol containing 0.1% of DMSO.
Cell culture. Human cancer cell lines including pancreatic (PANC-1 and CFPAC-1), lung (HCC827 and H460), stomach (NCI-N87), prostate (PC3), brest (MX-1 and HCC-1806), colorectal (HT-29), and ovarian (SK-OV-3 and OVCAR-3) were obtained from the American Type Culture Collection (ATCC) and cultured at 37° C. in a humidified 95% air/5% CO2 atmosphere in the medium recommended by ATCC.
Xenograft models of human cancers in nude mice. Female athymic (NCr nu/nu) nude mice, 5-to 6-weeks-old, obtained from the Envigo labs (Tampa, FL), were housed in laminar airflow cabinets under pathogen-free conditions with a 12-h light/12-h dark schedule, and were fed autoclaved standard chow and water. To generate mice with xenografted tumors, tumor xenografts were initiated by subcutaneous (s.c.) injection of […] human cancer cells into female nude mice. After about 4 weeks the resulting tumors were dissected and collected after removing necrosis tissues. The tumors were then cut into particles with size of ˜3 mm3 and transplanted s.c. by trocar needle into experimental animals. When tumors grew to the size of 50-60 mm3 (by volume), mice were randomized into groups and treated daily for 4-8 weeks by subcutaneous administration of 5 μg of GHRH antagonists MIA-602 or AVR-compounds (2-10 μg as indicated), or vehicle solutions (0.1% DMSO in 10% 1, 2-propanediol) respectively. Tumor sizes were measured weekly.
Statistical analysis. One-way ANOVA followed by Bonferroni comparison were performed. Data are expressed as Mean±SEM. […]

[1] = test system: mouse lung fibroblasts (Mlg 2908); test: RNAseq of cultured lung fibroblasts; type: cell-based; settings: 1 and 5 μM, normal fibroblasts not exposed to bleomycin
Method: Lung fibroblasts. Newborn mouse lung fibroblasts (Mlg 2908) were obtained from the American Type Culture Collection, Manassas, VA and cultured in Eagle's minimal essential medium. Cells were grown in 6-well plates before incubation with 1 or 5 μM MIA-602 or vehicle, RNA isolation, and oxygen consumption measurements.
RNA was extracted from cultured fibroblasts using a Direct-zol RNA MicroPrep kit (R2060; Zymo Research, Irvine, CA). Cells were washed with PBS and lysed in TRIreagent™, then purified using Direct-zol RNA columns. DNase I treatment was done in columns and RNA eluted in DNase/Rnase-free water.
RNAseq and Pathway analyses. At least 10 ng of total RNA was used as input for the KAPA RNA HyperPrep Kit with RiboErase (HMR) to create ribosomal RNA-depleted sequencing libraries, including sample indexing, to allow for multiplexing. Cluster generation and sequencing was done on the Illumina cBOT and HiSeq 3000 using reagents provided by Illumina, finally generating >32 million single-end 100 base reads per sample.
De-multiplexed FASTQ files were created with Illumina supplied scripts in BCL2FASTQ software (v2.17). […]
Gene counts were normalized using trimmed mean of M-values (TMM) method. Differential expression between groups was calculated with the exact test implemented in edgeR (Robinson M, McCarthy D, Smyth G (2010). Bioinformatics 26:139-140). […]

rat pituitary cells = test: Inhibition of GHRH(1-29)NH2-stimulated GH release from rat pituitary cells (ELISA); type: cell-based; settings: analog 20 nM
Method: In vitro assessment of the antagonistic activity of GHRH analogs. Rats were decapitated and pituitaries were collected in pre-warmed HBSS (Hanks' Balanced Salt Solution). Tissue was then cut into small pieces and digested in HBSS medium containing 3% BSA, 50 μg/ml gentamycin and 0.5% collagenase for 50 minutes at 37° C. Cells were further dispersed by pipetting and passed through a 100 μm cell strainer with the addition of DMEM containing 50 μg/ml gentamycin, 10% horse serum and 2.5% FBS (growth medium). Cells were harvested at 475×g for 2 minutes, resuspended in fresh growth medium and seeded onto poly-D-lysine-coated 24-well plates (7 pituitaries/plate). Cells were left to recover for 4 days. Growth medium was then replaced with serum-free DMEM for 4 hours and GHRH analogs (at concentration of 20 nM) were added in DMEM containing 0.1% BSA for 30 minutes. Cells were replenished with medium containing the same concentration of the analogs and 1 nM GHRH(1-29)NH2 for 30 minutes. Medium from this step was collected, centrifuged at 800 g for 3 minutes and GH concentration was determined by ELISA (ALPCO Diagnostics, Mill Valley, CA) according to the manufacturer's instruction.

SMILES | Tumor Growth % (OVCAR-3 xenograft) | Fibroblast gene expression [1] | Inhibitory effect on the release of GH compared with MIA-602 (rat pituitary cells)
CCCC[C@H](NC(=O)[C@@H](NC(=O)[C@H](CC(=O)O)NC(=O)[C@H](CCC(N)=O)NC(=O)[C@H](CC(C)C)NC(=O)[C@H](CC(C)C)NC(=O)[C@H](CCCN)NC(=O)[C@H](Cc1c[nH]cn1)NC(=O)[C@H](C)NC(=O)[C@H](CO)NC(=O)[C@H](CC(C)C)NC(=O)[C@H](CCC(N)=O)NC(=O)[C@H](CC)NC(=O)[C@H](CC(C)C)NC(=O)[C@@H](NC(=O)[C@H](CCCN)NC(=O)[C@H](Cc1c[nH]cn1)NC(=O)[C@H](Cc1ccc(OC)cc1)NC(=O)[C@H](CCCCNC(=N)N)NC(=O)[C@H](C)NC(=O)[C@@H](NC(=O)[C@H](Cc1c(F)c(F)c(F)c(F)c1F)NC(=O)[C@@H](NC(=O)[C@H](C)NC(=O)[C@H](CC(=O)O)NC(=O)[C@@H](CCCNC(=N)N)NC(=O)[C@H](Cc1ccc(O)cc1)NC(=O)CCCCCCCCCCCNC(=O)Cc1ccccc1)[C@@H](C)CC)[C@@H](C)O)C(C)C)[C@@H](C)CC)C(=O)N[C@H](CCCNC(=N)N)C(=O)N[C@@H](CCCCNC(=N)N)C(N)=O [MIA-602, PhAC-Ada, Tyr D-Arg, Asp, Ala, Ile, 5FPhe, Thr, Ala, Har, Tyr(Me), His, Orn, Val, Leu, Abu, Gin, Leu, Ser, Ala, His, Orn, Leu, Leu, Gin, Asp, Ile, Nle, D-Arg, Har NH2, reference compound] ({PhAc-12Ado}-Y[dR]DAI[Phe(F5)]TA[hArg]Y(Me)H[Orn]VL[Abu]QLSAH[Orn]LLQDI[Nle][dR][hArg]-NH2) | 267.2% | significant downregulation of genes involved in collagen fibril organization, cell-matrix adhesion and elastic fiber assembly | –
CCCC[C@H](NC(=O)[C@@H](NC(=O)[C@H](CC(=O)O)NC(=O)[C@H](CCC(N)=O)NC(=O)[C@H](CC(C)C)NC(=O)[C@H](CC(C)C)NC(=O)[C@H](CCCCN)NC(=O)[C@H](CCCNC(=N)N)NC(=O)[C@H](C)NC(=O)[C@H](CO)NC(=O)[C@H](CC(C)C)NC(=O)[C@H](CCC(N)=O)NC(=O)[C@H](CC)NC(=O)[C@H](CC(C)C)NC(=O)[C@@H](NC(=O)[C@H](CCCCN)NC(=O)[C@H](CCCNC(=N)N)NC(=O)[C@H](Cc1ccc(OC)cc1)NC(=O)[C@H](CCCCNC(=N)N)NC(=O)[C@H](C)NC(=O)[C@@H](NC(=O)[C@H](Cc1c(F)c(F)c(F)c(F)c1F)NC(=O)[C@@H](NC(=O)[C@H](C)NC(=O)[C@H](CC(=O)O)NC(=O)[C@@H](CCCNC(=N)N)NC(=O)[C@H](Cc1ccc(O)cc1)NC(=O)CCCCCCCCCCCNC(=O)Cc1c(F)c(F)c(F)c(F)c1F)[C@@H](C)CC)[C@@H](C)O)C(C)C)[C@@H](C)CC)C(=O)N[C@H](CCCNC(=N)N)C(=O)N[C@@H](CCCCNC(=N)N)C(=O)NC [AVR-235] ({Phenylacetyl(2,3,4,5,6-F5)-12Ado}-Y[dR]DAI[Phe(F5)]TA[hArg]Y(Me)RKVL[Abu]QLSARKLLQDI[Nle][dR][hArg]-NHMe) | – | – | higher inhibitory effects than MIA-602
